Assay results: patent publication US5718900A, “Vaccines and methods for preventing and treating Fescue toxicosis in herbivores” (priority 1994, dated 1998)
Structures can show the parent of a compound that is named as a salt.

Legend:
[1] = test system: monoclonal antibody 15F3.E5; experiment: Cross-reactivity of the monoclonal antibody, competitive ELISA on PLL-lysergic acid coated plates; type: binding, mouse; settings: for cross reaction of 15F3.E5 with lysergic acid derivative: at the concentrations tested; for IC50: antibody diluted 1:50, pre-incubated 1 h with lysergic acid derivative, absorbance at 405 nm, read-out: Molar Concentration at 50% Maximum Absorbance
Procedure: Mouse monoclonal antibody was diluted 1:50 in ELISA diluent. Working dilutions of various lysergic acid derivatives ranging between 1.78×10^-6 to 3.93×10^-15 M were made in 1:10 increments in PBS and 50 uL aliquots were pre-incubated for 1 h with 50 uL of diluted antibody at room temperature. To determine presence of unbound antibody, pre-incubated antibody/lysergic derivatives were transferred to ELISA plates pre-coated with PLL-lysergic acid for 2 h at room temperature. After washing, ELISA plates were treated with 1:500 dilution of rabbit derived antimouse antibody conjugated to alkaline phosphatase:ELISA diluent for 2 h at room temperature and washed. Fifty microliters of alkaline phosphate substrate was added to each well and the characteristic yellow color indicating binding of mouse antibody to the PLL-lysergic acid measured at 405 nm on a Titertek Multiskan Model MCC/340 plate reader.

fescue toxicosis = settings: literature report; cited from earlier work
Angus steers = settings: literature report; cited from earlier work

Structure (SMILES) | cross reaction of 15F3.E5 with lysergic acid derivative [1] | IC50 [1] [nM] | other results
CN1C[C@H](CO)C=C2c3cccc4[nH]cc(c34)C[C@H]21 [Lysergol] | cross reaction | – | –
CN1C[C@H](C(=O)N[C@]2(C)O[C@@]3(O)[C@@H]4CCCN4C(=O)[C@H](Cc4ccccc4)N3C2=O)C=C2c3cccc4[nH]cc(c34)C[C@H]21 [Ergotamine tartrate] | cross reaction | 7.69 | –
Cc1ncc(C[n+]2csc(CCO)c2C)c(N)n1 [thiamine] | – | – | effect on symptoms of fescue toxicosis (fescue toxicosis): partially alleviated symptoms
CC(C)C[C@H]1C(=O)N2CCC[C@H]2[C@]2(O)O[C@](NC(=O)[C@@H]3C=C4c5cccc6[nH]c(Br)c(c56)C[C@H]4N(C)C3)(C(C)C)C(=O)N12 [2-bromo-a-ergocryptine] | – | > 1330 | –
CC(C)[C@@]1(NC(=O)[C@@H]2C[C@@H]3c4cccc5[nH]cc(c45)C[C@H]3N(C)C2)O[C@@]2(O)[C@@H]3CCCN3C(=O)[C@H](Cc3ccccc3)N2C1=O [dihydro-ergocristine] | – | > 1780 | –
CC(C)C1C(=O)N2CCCC2C2(O)OC(NC(=O)C3CC4c5cccc6[nH]cc(c56)CC4N(C)C3)(C(C)C)C(=O)N12 (stereo not shown) [dihydro-ergocornine] | – | > 1680 | –
CN1C[C@H](C(=O)O)C=C2c3cccc4[nH]cc(c34)C[C@H]21 [Lysergic Acid] | cross reaction | 0.0373 | –
CC(C)[C@H]1C(=O)N2CCC[C@H]2[C@]2(O)O[C@@](C)(NC(=O)[C@@H]3C=C4c5cccc6[nH]cc(c56)C[C@H]4N(C)C3)C(=O)N12 [Ergovaline] | cross reaction | – | –
CCN(CC)CCNC(=O)c1cc(Cl)c(N)cc1OC [metoclopramide] | – | – | effect on serum prolactin, weight gains and hair coats (Angus steers): increased serum prolactin and weight gains
C[C@@H](CO)NC(=O)[C@@H]1C=C2c3cccc4[nH]cc(c34)C[C@H]2N(C)C1 [Ergonovine] | cross reaction | 1.69 | –
